The term pIC50 denotes −log10 of the IC50, conventionally taken in molar units.

pIC50: −log10 of the molar value. Bounds are passed on as bounds.

In the assay the target is T1, Human autotaxin enzyme (Homo sapiens, UniProt Q13822).
T1 construct: purchased R&D System
The assay can be described thus: Evaluation of autotaxin inhibitor, Method C (18:0 Lyso PC substrate, choline assay, Resorufin fluorescence). The conditions noted are these: Method C (Test Example 3), read-out: Inhibitory activity (enzyme inhibitory activity, IC50). The format is biochemical. As to the method: Test Example 3 (Method C) Evaluation of Autotaxin Inhibitor
Solution B containing 100 mM Tris-HCl buffer (pH7.5), 150 mM NaCl, 5 mM MgCl2, and 0.05% Triton X-100 was prepared. Human autotaxin enzyme (purchased from R&D System) was diluted with Solution B, and 2.5 μl of which was added to a solution of test compound in DMSO. Furthermore, 2.5 μl of 200 μM 18:0 Lyso PC (purchased from Avanti Polar Lipids) in Solution B was added and allowed to react at room temperature for 2 hours. After completion of the reaction, 15 μl of the coline assay reagent (100 mM Tris-HCl buffer (pH7.5), 5 mM MgCl2, 77 μg/ml coline oxidase, 10 μg/ml peroxydase, 25 μM 10-acetyl-3,7-dihydroxyphenoxazine, and excess autotaxin inhibitor) was added and allowed to react at room temperature for 20 minutes. The fluorescent dye Resorufin, which was produced by the reaction, was detected. The fluorescence was detected using ViewLux (PerkinElmer, Inc.) with a excitation wavelength of 531 nm and a fluorescence wavelength of 598 nm.
The percent inhibition of the test compound was calculated by assuming the sample with no test compound as 0% inhibition and the sample with no enzyme as 100% inhibition, and the percent inhibitions at different concentrations of the test compound were plotted to obtain a concentration-dependent curve.
For the compound `CCCCCC1CN(CC(=O)N2C[C@@H]3C(C(=O)O)[C@@H]3C2)C(=O)c2cc(-c3ccc(Cl)cc3)nn21` (stereo partly shown) [Compound I-0063], the negative-log IC50 (pIC50) is 7.00 to 8.00.
In the case of `CCCCCC1CN(CC(=O)N[C@@H](C(=O)O)c2ccccc2)C(=O)c2cc(-c3ccc(Cl)cc3)nn21` (stereo partly shown) [Compound I-0064] it was over 8.00.
As for `CCCCCC1CN(CC(=O)N2CCCC2C(=O)O)C(=O)c2cc(-c3ccc(Cl)cc3)nn21` (stereo not shown) [Compound I-0065], the figure is 7.00 to 8.00; as for `CCCCCC1CN(CC(=O)N2CCC(C(=O)O)C2)C(=O)c2cc(-c3ccc(Cl)cc3)nn21` (stereo not shown) [Compound I-0066], 7.00 to 8.00; as for `CCCCCC1CN(CC(=O)Nc2ccccc2CC(=O)O)C(=O)c2cc(-c3ccc(Cl)cc3)nn21` (stereo not shown) [Compound I-0067], 6.00 to 7.00.
Take `CCCCCC1CN(CC(=O)N2CCCCC2CC(=O)O)C(=O)c2cc(-c3ccc(Cl)cc3)nn21` (stereo not shown) [Compound I-0068]: the pIC50 was over 8.00.
In the case of `CCCCCC1CN(CC(=O)N[C@H](C(=O)O)c2ccccc2)C(=O)c2cc(-c3ccc(Cl)cc3)nn21` (stereo partly shown) [Compound I-0069] it was over 8.00; in that of `CCCCCC1CN(CC(=O)N2CCC[C@H](C(=O)O)C2)C(=O)c2cc(-c3ccc(Cl)cc3)nn21` (stereo partly shown) [Compound I-0070], 7.00 to 8.00; in that of `CCCCCC1CN(CC(=O)N2CCC[C@@H](C)C2)C(=O)c2cc(-c3ccc(Cl)cc3)nn21` (stereo partly shown) [Compound I-0071], 6.00 to 7.00.
For the compound `CCCCCC1CN(CC(=O)N2CCCC2Cc2ccccc2)C(=O)c2cc(-c3ccc(Cl)cc3)nn21` (stereo not shown) [Compound I-0072], the pIC50 was at most 6.00.
As for `CCCCCC1CN(CC(=O)Nc2ccccn2)C(=O)c2cc(-c3ccc(Cl)cc3)nn21` (stereo not shown) [Compound I-0073], the figure is at most 6.00; as for `CCCCCC1CN(CC(=O)N2CCC(C)C2)C(=O)c2cc(-c3ccc(Cl)cc3)nn21` (stereo not shown) [Compound I-0074], 6.00 to 7.00; as for `CCCCCC1CN(CC(=O)N2CCC[C@@H]2C)C(=O)c2cc(-c3ccc(Cl)cc3)nn21` (stereo partly shown) [Compound I-0075], 7.00 to 8.00.
In the case of `CCCCCC1CN(CC(=O)N2CCCC[C@H]2C)C(=O)c2cc(-c3ccc(Cl)cc3)nn21` (stereo partly shown) [Compound I-0076] it was 6.00 to 7.00; in that of `CCCCCC1CN(CC(=O)N(C)CC)C(=O)c2cc(-c3ccc(Cl)cc3)nn21` (stereo not shown) [Compound I-0077], 6.00 to 7.00.
In the case of `CCCCCC1CN(CC(=O)N2CCCC2CCCc2ccccc2)C(=O)c2cc(-c3ccc(Cl)cc3)nn21` (stereo not shown) [Compound I-0078] it was at most 6.00.
Consider `CCCCCC1CN(CC(=O)N2CCCC2CCCC)C(=O)c2cc(-c3ccc(Cl)cc3)nn21` (stereo not shown) [Compound I-0079], for which the pIC50 is 6.00 to 7.00.
With `CCCCCC1CN(CC(=O)N2CCC[C@H](C)C2)C(=O)c2cc(-c3ccc(Cl)cc3)nn21` (stereo partly shown) [Compound I-0080], the pIC50 was 7.00 to 8.00.
As for `CCCCCC1CN(CC(=O)N2CCCC2C)C(=O)c2cc(-c3ccc(Cl)cc3)nn21` (stereo not shown) [Compound I-0081], the figure is 6.00 to 7.00; as for `CCCCCC1CN(CC(=O)N2CCCC[C@@H]2C)C(=O)c2cc(-c3ccc(Cl)cc3)nn21` (stereo partly shown) [Compound I-0082], 7.00 to 8.00; as for `CCCCCC1CN(CC(=O)N2CCCCC2)C(=O)c2cc(-c3ccc(Cl)cc3)nn21` (stereo not shown) [Compound I-0083], 6.00 to 7.00.
In the case of `CCCCCC1CN(CC(=O)Nc2ccncc2)C(=O)c2cc(-c3ccc(Cl)cc3)nn21` (stereo not shown) [Compound I-0084] it was at most 6.00; in that of `CCCCCC1CN(CC(=O)N(C)c2ccncc2)C(=O)c2cc(-c3ccc(Cl)cc3)nn21` (stereo not shown) [Compound I-0085], at most 6.00.
As for `CCCCCC1CN(CC(=O)Nc2cccnc2)C(=O)c2cc(-c3ccc(Cl)cc3)nn21` (stereo not shown) [Compound I-0086], the figure is 6.00 to 7.00; as for `CCCCCC1CN(CC(=O)Nc2ccccc2)C(=O)c2cc(-c3ccc(Cl)cc3)nn21` (stereo not shown) [Compound I-0087], at most 6.00; as for `CCCCCC1CN(CC(=O)NCCCC)C(=O)c2cc(-c3ccc(Cl)cc3)nn21` (stereo not shown) [Compound I-0088], 6.00 to 7.00.
Take `CCCCCC1CN(CC(=O)N2CCCC(CO)C2)C(=O)c2cc(-c3ccc(Cl)cc3)nn21` (stereo not shown) [Compound I-0089]: the pIC50 is 7.00 to 8.00.
In the case of `CCCCCC1CN(CC(=O)N2CCCCC2CO)C(=O)c2cc(-c3ccc(Cl)cc3)nn21` (stereo not shown) [Compound I-0090] it was 7.00 to 8.00; in that of `CCCCCC1CN(CC(=O)N2CCCCC2CC)C(=O)c2cc(-c3ccc(Cl)cc3)nn21` (stereo not shown) [Compound I-0091], 6.00 to 7.00; in that of `CCCCCC1CN(CC(=O)N2CCCC(O)C2)C(=O)c2cc(-c3ccc(Cl)cc3)nn21` (stereo not shown) [Compound I-0092], 6.00 to 7.00.
As for `CCCCCC1CN(CC(=O)N2CCC(C)CC2)C(=O)c2cc(-c3ccc(Cl)cc3)nn21` (stereo not shown) [Compound I-0093], the figure is 6.00 to 7.00; as for `CCCCCC1CN(CC(=O)N2CCC(O)CC2)C(=O)c2cc(-c3ccc(Cl)cc3)nn21` (stereo not shown) [Compound I-0094], 7.00 to 8.00; as for `CCCCCC1CN(CC(=O)N2CCCC(C(N)=O)C2)C(=O)c2cc(-c3ccc(Cl)cc3)nn21` (stereo not shown) [Compound I-0095], 7.00 to 8.00.
Regarding `CCCCCC1CN(CC(=O)N2CCC(CO)CC2)C(=O)c2cc(-c3ccc(Cl)cc3)nn21` (stereo not shown) [Compound I-0096], the pIC50 is 6.00 to 7.00.
In the case of `CCCCCC1CN(CC(=O)N2CCCC2)C(=O)c2cc(-c3ccc(Cl)cc3)nn21` (stereo not shown) [Compound I-0097] it was 6.00 to 7.00; in that of `CCCCCC1CN(CC(=O)N2CCCCCC2)C(=O)c2cc(-c3ccc(Cl)cc3)nn21` (stereo not shown) [Compound I-0098], 6.00 to 7.00.
As for `CCCCCC1CN(CC(=O)NCc2ccccc2)C(=O)c2cc(-c3ccc(Cl)cc3)nn21` (stereo not shown) [Compound I-0099], the figure is 6.00 to 7.00; as for `CCCCCC1CN(CC(=O)N2CCNCC2)C(=O)c2cc(-c3ccc(Cl)cc3)nn21` (stereo not shown) [Compound I-0100], 6.00 to 7.00.
In the case of `CCCCCC1CN(CC(=O)N2CCOCC2)C(=O)c2cc(-c3ccc(Cl)cc3)nn21` (stereo not shown) [Compound I-0101] it was 6.00 to 7.00.
For `CCCCCC1CN(CC(=O)N(C)CCN(C)C)C(=O)c2cc(-c3ccc(Cl)cc3)nn21` (stereo not shown) [Compound I-0102], the pIC50 was at most 6.00.
As for `CCCCCC1CN(CC(=O)NCCN(C)C)C(=O)c2cc(-c3ccc(Cl)cc3)nn21` (stereo not shown) [Compound I-0103], the figure is at most 6.00; as for `CCCCCC1CN(CC(=O)NCCCN(C)C)C(=O)c2cc(-c3ccc(Cl)cc3)nn21` (stereo not shown) [Compound I-0104], at most 6.00.
As for `CCCCCC1CN(CC(=O)N2CCCCC2c2ccccc2)C(=O)c2cc(-c3ccc(Cl)cc3)nn21` (stereo not shown) [Compound I-0105], the figure is 6.00 to 7.00; as for `CCCCCC1CN(CC(=O)N2CCCC(c3ccccc3)C2)C(=O)c2cc(-c3ccc(Cl)cc3)nn21` (stereo not shown) [Compound I-0106], 6.00 to 7.00.
In the case of `CCCCCC1CN(CC(=O)N2CCCC2c2ccccc2)C(=O)c2cc(-c3ccc(Cl)cc3)nn21` (stereo not shown) [Compound I-0107] it was 6.00 to 7.00.
On to `CCCCCC1CN(CC(=O)NCC)C(=O)c2cc(-c3ccc(Cl)cc3)nn21` (stereo not shown) [Compound I-0108], for which the pIC50 is 6.00 to 7.00.
Turning to `CCCCCC1CN(CC(=O)N2CCCCC2CCN2CCOCC2)C(=O)c2cc(-c3ccc(Cl)cc3)nn21` (stereo not shown) [Compound I-0109], the negative-log IC50 (pIC50) was at most 6.00.
As for `CCCCCC1CN(CC(=O)N2CCC(c3ccccc3)C2)C(=O)c2cc(-c3ccc(Cl)cc3)nn21` (stereo not shown) [Compound I-0110], the figure is 6.00 to 7.00.
As for `CCCCCC1CN(CC(=O)N2CCC(N(C)C)CC2)C(=O)c2cc(-c3ccc(Cl)cc3)nn21` (stereo not shown) [Compound I-0111], the figure is at most 6.00.
In the case of `CCCCCC1CN(CC(=O)N2CCC(C(N)=O)C2)C(=O)c2cc(-c3ccc(Cl)cc3)nn21` (stereo not shown) [Compound I-0112] it was 6.00 to 7.00; in that of `CCCCCC1CN(CC(=O)N2CCC(=O)CC2)C(=O)c2cc(-c3ccc(Cl)cc3)nn21` (stereo not shown) [Compound I-0113], 7.00 to 8.00.
For the compound `CCCCCC1CN(CC(=O)OCC2CCCCN2)C(=O)c2cc(-c3ccc(Cl)cc3)nn21` (stereo not shown) [Compound I-0114], the negative logarithm of the IC50 (pIC50) is at most 6.00.
Regarding `CCCCCC1CN(CC(=O)N2CCCC(C)C2)C(=O)c2cc(-c3ccc(Cl)cc3)nn21` (stereo not shown) [Compound I-0115], the pIC50 is 6.00 to 7.00.
In the case of `CCCCCC1CN(CC(=O)N2CCCCC2C)C(=O)c2cc(-c3ccc(Cl)cc3)nn21` (stereo not shown) [Compound I-0116] it was 7.00 to 8.00; in that of `CCCCCC1CN(CC(=O)N2CCC[C@H]2C)C(=O)c2cc(-c3ccc(Cl)cc3)nn21` (stereo partly shown) [Compound I-0117], 6.00 to 7.00; in that of `CCCCCC1CN(CC(=O)N(C)c2ccc(C(=O)O)cc2)C(=O)c2cc(-c3ccc(Cl)cc3)nn21` (stereo not shown) [Compound I-0118], at most 6.00.
As for `CCCCCC1CN(CC(=O)NCc2ccccc2C(=O)O)C(=O)c2cc(-c3ccc(Cl)cc3)nn21` (stereo not shown) [Compound I-0119], the figure is 7.00 to 8.00; as for `CCCCCC1CN(Cc2cccc(CC(=O)O)c2)C(=O)c2cc(-c3ccc(Cl)cc3)nn21` (stereo not shown) [Compound I-0120], 7.00 to 8.00.
As for `CCCCCC1CN(Cc2cccc3c(C(=O)O)csc23)C(=O)c2cc(-c3ccc(Cl)cc3)nn21` (stereo not shown) [Compound I-0121], the figure is 7.00 to 8.00; as for `CCCCCC1CN(Cc2cc(C)cc(C(=O)O)c2)C(=O)c2cc(-c3ccc(Cl)cc3)nn21` (stereo not shown) [Compound I-0122], 7.00 to 8.00.
Consider `CCCCCC1CN(Cc2ccc(O)cc2)C(=O)c2cc(-c3ccc(Cl)cc3)nn21` (stereo not shown) [Compound I-0123], for which the pIC50 is at most 6.00.

The values are drawn from patent US10189843B2, “Fused pyrazole derivative having autotaxin inhibitory activity” (The University of Tokyo, priority 2014, dated 2019).
